Experimental findings from EP0908457B1, “3-(1,2-benzisothiazol- and isoxazol-5-Y1)-2,4(1H,3H)-pyrimidinedione or thione and 3-(1,2-benzisothiazol- and isoxazol-5-y1)-4(3H)-pyrimidinone or thione herbicidal agents” (BASF AKTIENGESELLSCHAFT, priority 1997, dated 1999) are described below.

Data set [1] concerns Echinochloa oryzoides (Ard.) Fritsch. As to the kind of experiment: Preemergence weed control under flooded paddy conditions, ECHORC (Watergrass (Calif.)). For herbicidal effect rating, ECHORC: meaning of each grade not given here. It is filed as in vivo. Particulars: flooded paddy; for ECHORC: herbicidal effect rating 0-9, three to four weeks after treatment.
Another data set concerns Cyperus iria. As to the kind of experiment: Preemergence weed control under flooded paddy conditions, CYPIR (Rice Flatsedge). For herbicidal effect rating, CYPIR: meaning of each grade not given here. It is filed as in vivo. To be noted: flooded paddy; for CYPIR: herbicidal effect rating 0-9, three to four weeks after treatment.
Data set [2] relates to Cyperus serotinus, Rottb. Nature of the data set: Preemergence weed control under flooded paddy conditions, CYPSE (Flatsedge). For herbicidal effect rating, CYPSE: meaning of each grade not given here. It is filed as in vivo. Particulars: for CYPSE: herbicidal effect rating 0-9, three to four weeks after treatment.
Data set [3] has as its system Monochoria vaginalis, Presl. Nature of the data set: Preemergence weed control under flooded paddy conditions, MOOVA (Monochoria). For herbicidal effect rating, MOOVA: meaning of each grade not given here. The data set is classed as in vivo. To be noted: flooded paddy; for MOOVA: herbicidal effect rating 0-9, three to four weeks after treatment.
Another data set has as its system Sagittaria pygmaea, L. As to the kind of experiment: Preemergence weed control under flooded paddy conditions, SAGPY (Arrowhead (Pygmaea)). For herbicidal effect rating, SAGPY: meaning of each grade not given here. It is filed as in vivo. Particulars: flooded paddy; for SAGPY: herbicidal effect rating 0-9, three to four weeks after treatment.
Data set [4] has as its system Oryza sativa, (L.) Tebonnet. Nature of the data set: Rice tolerance to post-transplant applications under flooded paddy conditions (Example 187), ORYSAT (Rice, Tebonnet). For herbicidal effect rating ORYSAT: meaning of each grade not given here. Particulars: for herbicidal effect rating, ORYSAT (rice tolerance) / ORYSAT herbicidal rating (rice tolerance): rated three to four weeks after treatment; for herbicidal effect rating ORYSAT: rated 3-4 weeks after treatment; for ORYSAT: herbicidal effect rating 0-9, three to four weeks after treatment.

Setting [5] is: 0.0313 kg/ha, preemergence weeds, rated three to four weeks after treatment.
The mark [6] stands for this setting: 0.0625 kg/ha, preemergence weeds, rated three to four weeks after treatment.
Setting [7] is: 0.1250 kg/ha, preemergence weeds, rated three to four weeks after treatment.
The mark [8] stands for this setting: 0.2500 kg/ha, preemergence weeds, rated three to four weeks after treatment.
Where [9] appears, read: 0.0320 kg/ha, preemergence, rated three to four weeks after treatment.
[10] abbreviates: 0.0620 kg/ha, preemergence, rated three to four weeks after treatment.
The mark [11] stands for this setting: 0.1250 kg/ha, preemergence, rated three to four weeks after treatment.
Setting [12] is: 0.2500 kg/ha, preemergence, rated three to four weeks after treatment.
The mark [13] stands for this setting: Rate 0.0320 kg/ha, preemergence, rated 3-4 weeks after treatment.
Where [14] appears, read: Rate 0.0620 kg/ha, preemergence, rated 3-4 weeks after treatment.
Setting [15] is: Rate 0.1250 kg/ha, preemergence, rated 3-4 weeks after treatment.
Setting [16] is: Rate 0.2500 kg/ha, preemergence, rated 3-4 weeks after treatment.
Setting [17] is: Rate 0.5000 kg/ha, preemergence, rated 3-4 weeks after treatment.
[18] abbreviates: 0.0320 kg/ha, preemergence weeds.
[19] abbreviates: 0.0620 kg/ha, preemergence weeds.
[20] abbreviates: 0.1250 kg/ha, preemergence weeds.
The mark [21] stands for this setting: 0.2500 kg/ha, preemergence weeds.

On to `COCC(C)OC(=O)COc1ccc(C)cc1-c1nsc2ccc(-n3c(=O)cc(C(F)(F)F)n(C)c3=O)cc12` (racemic) [Example 192, 1-Methyl-2-methoxyethyl {{2-{5-[3,6-dihydro-3-methyl-2,6-dioxo-4-(trifluoromethyl)-1(2H)-pyrimidinyl]-1,2-benzisothiazol-3-yl}-p-tolyl}oxy}acetate, DL-], for which the “herbicidal effect rating, ECHORC” value was determined as 1.0 in data set [1] (setting [5]), 4.0 in data set [1] (setting [6]), 9.0 in data set [1] (setting [7]) and 9.0 in data set [1] (setting [8]). Besides, the “herbicidal effect rating, CYPIR” value is on record as 0.0 with Cyperus iria (setting [5]), 0.0 in the data set with Cyperus iria (setting [6]), 2.0 with Cyperus iria (setting [7]) and 7.0 with Cyperus iria (setting [8]). The “herbicidal effect rating, CYPSE” value in data set [2] (setting [5]), in data set [2] (setting [6]) and in data set [2] (setting [7]) was 0.0 throughout. Further, the “herbicidal effect rating, MOOVA” value in data set [3] (setting [5]), in data set [3] (setting [6]), in data set [3] (setting [7]) and in data set [3] (setting [8]) was 9.0 in each case. For the same molecule, the “herbicidal effect rating, SAGPY” value is 0.0 in the data set on Sagittaria pygmaea, L. (setting [5]); 0.0 in the data set on Sagittaria pygmaea, L. (setting [6]); 2.0 in the data set on Sagittaria pygmaea, L. (setting [7]); 9.0 in the data set on Sagittaria pygmaea, L. (setting [8]). The “herbicidal effect rating, ORYSAT (rice tolerance)” value turned out to be 1.0 in data set [4] (0.0313 kg/ha), 2.0 in data set [4] (0.0625 kg/ha), 3.0 in data set [4] (0.1250 kg/ha) and 4.0 in data set [4] (0.2500 kg/ha).
`Cc1cccc(CS(=O)(=O)NC(=O)c2nsc3ccc(-n4c(=O)cc(C(F)(F)F)n(C)c4=O)cc23)c1` [Example 483, 1,2-Benzisothiazole-3-carboxamide, 5-[3,6-dihydro-3-methyl-2,6-dioxo-4-(trifluoromethyl)-1(2H)-pyrimidinyl]-N-[(m-methylbenzyl)sulfonyl]-]: the ECHORC herbicidal rating in data set [1] (setting [9]) is reported as 6.0; in data set [1] (setting [10]), 7.0; in data set [1] (setting [11]), 7.0; in data set [1] (setting [12]), 7.0. Moreover, the CYPIR herbicidal rating in the data set on Cyperus iria (setting [9]) stood at 0.0; in the data set with Cyperus iria (setting [10]), 2.0; with Cyperus iria (setting [11]) it was 5.0; in the data set on Cyperus iria (setting [12]), 6.0. The results for the CYPSE herbicidal rating in data set [2] (setting [10]) and in data set [2] (setting [12]) were 4.0 and 6.0, respectively. For the same molecule, the MOOVA herbicidal rating in data set [3] (setting [9]) was determined as 7.0; in data set [3] (setting [10]), 9.0; in data set [3] (setting [11]), 9.0; in data set [3] (setting [12]) it was 9.0. Further, the SAGPY herbicidal rating is on record as 0.0 in the data set on Sagittaria pygmaea, L. (setting [9]); 0.0 in the data set on Sagittaria pygmaea, L. (setting [10]); 3.0 in the data set on Sagittaria pygmaea, L. (setting [11]); 5.0 with Sagittaria pygmaea, L. (setting [12]). Further, the “ORYSAT herbicidal rating (rice tolerance)” value is 3.0 in data set [4] (0.0320 kg/ha), 3.0 in data set [4] (0.0620 kg/ha), 5.0 in data set [4] (0.1250 kg/ha) and 6.0 in data set [4] (0.2500 kg/ha).
For `Cn1c(C(F)(F)F)cc(=O)n(-c2ccc3snc(C(=O)NS(=O)(=O)Cc4cccc(Cl)c4)c3c2)c1=O` [Example 486, 1,2-Benzisothiazole-3-carboxamide, N-[(m-chlorobenzyl)sulfonyl]-5-[3,6-dihydro-3-methyl-2,6-dioxo-4-(trifluoromethyl)-1(2H)-pyrimidinyl]-], the ECHORC herbicidal rating in data set [1] (setting [9]) turned out to be 4.0; in data set [1] (setting [10]), 6.0; in data set [1] (setting [11]), 7.0; in data set [1] (setting [12]), 9.0. The CYPIR herbicidal rating in the data set on Cyperus iria (setting [9]) stood at 4.0; with Cyperus iria (setting [10]), 5.0; in the data set on Cyperus iria (setting [11]), 6.0; in the data set with Cyperus iria (setting [12]), 6.0. For the same molecule, the CYPSE herbicidal rating was 0.0 in data set [2] (setting [9]), 0.0 in data set [2] (setting [10]) and 3.0 in data set [2] (setting [12]). Also, the MOOVA herbicidal rating in data set [3] (setting [9]) is 5.0; in data set [3] (setting [10]), 6.0; in data set [3] (setting [11]), 7.0; in data set [3] (setting [12]) it was 9.0. Moreover, the SAGPY herbicidal rating in the data set with Sagittaria pygmaea, L. (setting [9]) is listed as 0.0; in the data set with Sagittaria pygmaea, L. (setting [10]) it was 0.0; with Sagittaria pygmaea, L. (setting [11]), 3.0; in the data set on Sagittaria pygmaea, L. (setting [12]), 6.0. The “ORYSAT herbicidal rating (rice tolerance)” value in data set [4] (0.0320 kg/ha) is listed as 0.0; in data set [4] (0.0620 kg/ha), 3.0; in data set [4] (0.1250 kg/ha), 5.0; in data set [4] (0.2500 kg/ha), 6.0.
For the molecule `CCS(=O)(=O)NC(=O)COc1ccccc1-c1nsc2ccc(-n3c(=O)cc(C(F)(F)F)n(C)c3=O)cc12` [Example 558, Acetamide, 2-{o-{5-[3,6-dihydro-3-methyl-2,6-dioxo-4-(trifluoromethyl)-1(2H)-pyrimidinyl]-1,2-benzisothiazol-3-yl}phenoxy}-N-(ethylsulfonyl)-], the “herbicidal effect rating, ECHORC” value is listed as 4.3 in data set [1] (setting [13]); 4.7 in data set [1] (setting [14]); 7.0 in data set [1] (setting [15]); 9.0 in data set [1] (setting [16]); 9.0 in data set [1] (setting [17]). Besides, the “herbicidal effect rating, CYPIR” value with Cyperus iria (setting [13]) is on record as 2.0; in the data set with Cyperus iria (setting [14]), 6.0; in the data set with Cyperus iria (setting [15]), 8.0; in the data set with Cyperus iria (setting [16]), 9.0; in the data set on Cyperus iria (setting [17]), 9.0. For the same molecule, the “herbicidal effect rating, CYPSE” value in data set [2] (setting [15]), in data set [2] (setting [16]) and in data set [2] (setting [17]) was 9.0 each time. The “herbicidal effect rating, MOOVA” value in data set [3] (setting [13]), in data set [3] (setting [14]), in data set [3] (setting [15]), in data set [3] (setting [16]) and in data set [3] (setting [17]) was 9.0 each time. Moreover, the “herbicidal effect rating, SAGPY” value was 2.0 in the data set with Sagittaria pygmaea, L. (setting [13]); 2.0 in the data set with Sagittaria pygmaea, L. (setting [14]); 4.0 in the data set on Sagittaria pygmaea, L. (setting [15]); 8.0 in the data set with Sagittaria pygmaea, L. (setting [16]); 4.0 with Sagittaria pygmaea, L. (setting [17]). Also, the “herbicidal effect rating ORYSAT” value was 4.0 in data set [4] (Rate 0.0320 kg/ha); 7.0 in data set [4] (Rate 0.0620 kg/ha); 9.0 in data set [4] (Rate 0.1250 kg/ha); 9.0 in data set [4] (Rate 0.2500 kg/ha); 9.0 in data set [4] (Rate 0.5000 kg/ha).
`CCSC(=O)c1nsc2ccc(-n3c(=O)cc(C(F)(F)F)n(C)c3=O)cc12` [Example 422, 1,2-Benzisothiazole-3-thiocarboxylic acid, 5-[3,6-dihydro-3-methyl-2,6-dioxo-4-(trifluoromethyl)-1(2H)-pyrimidinyl]-, S-ethyl ester]: the ECHORC in data set [1] (setting [18]) amounted to 5.0; in data set [1] (setting [19]), 6.0; in data set [1] (setting [20]) it was 9.0; in data set [1] (setting [21]), 9.0. Further, the CYPIR in the data set with Cyperus iria (setting [18]) is listed as 5.0; with Cyperus iria (setting [19]), 6.0; in the data set on Cyperus iria (setting [20]), 9.0; in the data set with Cyperus iria (setting [21]), 9.0. Moreover, the CYPSE is given as 0.0 in data set [2] (setting [18]) and 5.0 in data set [2] (setting [19]). Also, the MOOVA in data set [3] (setting [18]) is listed as 7.0; in data set [3] (setting [19]), 9.0; in data set [3] (setting [20]), 9.0; in data set [3] (setting [21]) it was 9.0. For the same molecule, the SAGPY in the data set on Sagittaria pygmaea, L. (setting [18]) is 0.0; with Sagittaria pygmaea, L. (setting [19]), 0.0; in the data set with Sagittaria pygmaea, L. (setting [20]), 3.0; in the data set on Sagittaria pygmaea, L. (setting [21]), 6.0. For the same molecule, the ORYSAT in data set [4] (0.0320 kg/ha) was found to be 0.0; in data set [4] (0.0620 kg/ha), 0.0; in data set [4] (0.1250 kg/ha) it was 2.0; in data set [4] (0.2500 kg/ha), 3.0.
